# Measured values published in patent US20240390351A1, “MYCOBACTERIUM ABSCESSUS GROWTH INHIBITOR AND MODEL” (priority 2021, published 2024).
# Legend:
# [1] = target: T1, Mabε (M. abscessus F-ATP synthase subunit ε) (Mycobacteroides abscessus, UniProt B1MLW3); assay: 1H-15N-HSQC NMR titration and R2 relaxation of Mabε with compound; assay type: binding, Mycobacterium abscessus; conditions: 1:5 molar ratio of Mabε and Ep1MabF1; residues V9, A10, R13, E14, G68-I72, V77, I79-A81
# T1 construct: made in house; host or cells: Escherichia coli C41 (DE3)
# T1 sequence (B1MLW3 2-121): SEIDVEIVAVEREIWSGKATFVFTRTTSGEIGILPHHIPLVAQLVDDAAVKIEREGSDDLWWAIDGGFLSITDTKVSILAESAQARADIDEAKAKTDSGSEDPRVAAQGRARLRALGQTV
# Experimental: All NMR experiments were carried out on a BrukerAvance 700-MHz spectrometer, which was equipped with a cryoprobe at 298 K.
# To confirm that Mabε is Ep1MabF1's target, a ^1H-^15N-HSQC NMR titration experiment in the presence (1:5 molar ratio of Mabε and Ep1MabF1) and absence of the compound was performed. Significant changes in chemical shift were (CSP >0.15 ppm) detected for the backbone resonances of amino acids V9, A10, R13, E14, G68-172, V77 and 179-A81 (FIGS. 14C and 15). […] In addition, we measured R2 relaxation data in the presence of Ep1MabF1 and calculated the changes of R2 values between the compound-free and compound-bound protein.
# [2] = tested on: intracellular ATP synthesis of M. abscessus subsp. abscessus; assay: Whole-cell ATP measurement (BacTiter-Glo), intracellular ATP synthesis inhibition; assay type: cell-based, Mycobacterium abscessus subsp. abscessus; conditions: Mycobacteroides abscessus, CAMH medium, 24 h, read-out: inhibitory concentration (IC50) for intracellular ATP levels
# Experimental: Clear 96-well flat-bottom cell culture plates (Nunc) were filled with 100 μL of CAMH medium in each well. The compound was added to the first well in each row to create two times the desired highest final concentration. Subsequently, a […] twofold serial dilution was carried out starting from the first well in each row. Mab, which was grown to mid-exponential phase, was diluted to an optical density at 600 nm (OD600) of 0.1; 100 μL of the diluted culture was added to each well to create a final OD600 of 0.05 in all the wells. The plates were incubated at 37° C. on a standing incubator for 24 h. At the end of the incubation period, the samples were measured for their intrabacterial ATP content by employing the BacTiter-Glo microbial cell viability assay (Promega), which was carried out according to the manufacturer's instructions as described previously (Hotra, A. et al., Angew. Chem. Int. Ed. Engl. 2020, 59, 13295-13304). […] Luminescence was measured with Cytation 5 multi-mode reader after 10 min of incubation of the plate in the dark at room temperature. The background luminescence reading was subtracted from the luminescence readings of all the samples. The ATP amount is directly proportional to the relative luminescence units. […]
# The similar IC50- and MIC50 values determined, indicate that ATP synthesis catalyzed by the F-ATP synthase is the major cause of cell growth inhibition.
# [3] = tested on: M. abscessus subsp. abscessus ATCC 19977; assay: Growth inhibition dose-response assay, broth microdilution in CAMH medium; assay type: cell-based, Mycobacterium abscessus subsp. abscessus; conditions: Mycobacteroides abscessus, ATCC19977; M. abscessus subsp. abscessus ATCC 19977, CAMH medium; concentration that inhibits 50% of growth; read-out: minimum inhibitory concentration (MIC50), growth inhibition
# Experimental: The M. abscessus subsp. abscessus ATCC 19977 strain was used. The Mab strain was maintained in CAMH broth, which was prepared according to the manufacturer's instructions. The growth inhibition dose-response assay was carried out using the broth microdilution method as described previously (Moreira, W., Aziz, D. B. & Dick T., Front. Microbiol. 2016, 7, 199). The MIC50 reported represents the concentration that inhibits 50% of growth compared with the untreated culture.
# [4] = target: T1, Mabε (M. abscessus F-ATP synthase subunit ε); assay: NMR titration of Mabε with MgATP; assay type: binding, Mycobacterium abscessus; conditions: molar ratio of Mabε to MgATP of 1:10
# From the text: In thermophilic Bacillus PS3, Bacillus subtilis and chloroplasts, the C terminus of E is described as a mobile regulatory element, altering its conformation in response to nucleotide conditions or the ion motive force (IMF). ATP binding in E of thermophilic Bacillus PS3 and Bacillus subtilis forces the C-terminal helices into a hairpin conformation, which extends in the absence of the nucleotide, leading to an inhibited ATP hydrolysis state. Here, we used the high-quality NMR spectra of Mabε and performed NMR titration experiments in the presence of MgATP (molar ratio of Mabε to MgATP of 1:10). […] ATP binding of the M. smegmatis subunit E was also not observed in the recent cryo-EM structure of the M. smegmatis F-ATP synthase (Guo, H. et al., Nature 2021, 589, 143-147), underlining that the mycobacterial E subunits are not regulated via nucleotide binding to this rotary subunit.
SMILES,chemical shift perturbation (CSP) of Mabε backbone resonances [1],IC50 [2],MIC50 [3],chemical shift change of Mabε in 15N HSQC after addition of nucleotide (binding) [4]
"Cc1cccc(Cc2nc3ccccc3n2CCC(=O)NCc2ccccn2)c1 [Ep1MabF1, 3-(2-(3-methylbenzyl)-1H-benzo[d]imidazol-1-yl)-N-(pyridin-2-ylmethyl)propanamide]",> 0.15 ppm,600 ± 30 µM,420 ± 14 µM,–
Nc1ncnc2c1ncn2[C@@H]1O[C@H](COP(=O)(O)OP(=O)([O-])OP(=O)([O-])O)[C@@H](O)[C@H]1O.[Mg+2] [MgATP],–,–,–,no obvious chemical shift was observed
